# Measured values reported in patent US20230085307A1, “PYRIDAZINONE COMPOUND AND HERBICIDE” (NISSAN CHEMICAL CORPORATION, priority 2019, published 2023).
# Test system: wild oat
# Test: Test Example 5: herbicidal effect by foliage application, plastic box (Table 20, symbol I)
# Format: in vivo, wild oat (Avena fatua)
# Conditions: foliage application, AAH 320 g/ha, evaluated three weeks after application
# In short: (§1)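 Foliar spray test: emulsion formulation diluted in water to a set application rate, sprayed onto 14-day-old plants raised in diluvial soil at 25° C to 30° C under glass. Both herbicidal effect and crop effect rated visually three weeks later.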
row,Structure (SMILES),"I: wild oat, herbicidal effect (criteria 0-5)"
1,Cc1nn(C)c(=O)c(-c2c(-c3ccc(S(C)(=O)=O)cc3)sc3ccc(F)cc23)c1O [2-258],5 (Herbicidal rate of 90% or more (almost completely withered))
2,Cc1nn(C)c(=O)c(-c2c(-c3ccc(OC(F)F)cc3)sc3ccc(F)cc23)c1OC(=O)c1ccc(Cl)cc1 [2-286],1 (Herbicidal rate of 5% or more and less than 20%)

# Test system: persian speedwell
# Test: Test Example 5: herbicidal effect by foliage application, plastic box (Table 20, symbol R)
# Format: in vivo, Persian speedwell (Veronica persica)
# Conditions: foliage application, AAH 320 g/ha, evaluated three weeks after application
# In short: as §1
row,Structure (SMILES),"R: persian speedwell, herbicidal effect (criteria 0-5)"
1,Cc1nn(C)c(=O)c(-c2c(-c3ccc(S(C)(=O)=O)cc3)sc3ccc(F)cc23)c1O [2-258],5 (Herbicidal rate of 90% or more (almost completely withered))
2,Cc1nn(C)c(=O)c(-c2c(-c3ccc(OC(F)F)cc3)sc3ccc(F)cc23)c1OC(=O)c1ccc(Cl)cc1 [2-286],5 (Herbicidal rate of 90% or more (almost completely withered))

# Test system: late watergrass
# Test: Test Example 2: herbicidal activity, application during weed generation under submerged conditions (Table 17, symbol A)
# Format: in vivo, late watergrass (Echinochloa oryzicola)
# Conditions: AAH 320 g/ha; application during weed generation, submerged conditions
# In short: (§2)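 In this pot test, flooded alluvial soil (water depth 4 cm) holds all three species sown as a mixture. Once seedlings have one to two leaves, the compound's emulsion, thinned with water to the intended dose, is poured on the water; grading follows after three weeks on the earlier criteria.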
row,Structure (SMILES),"herbicidal effect rating, A: late watergrass"
1,Cc1nn(C)c(=O)c(-c2c(-c3ccc(S(C)(=O)=O)cc3)sc3ccc(F)cc23)c1O [2-258],4 (Herbicidal rate of 70% or more and less than 90%)
2,Cc1nn(C)c(=O)c(-c2c(-c3ccc(OC(F)F)cc3)sc3ccc(F)cc23)c1OC(=O)c1ccc(Cl)cc1 [2-286],3 (Herbicidal rate of 40% or more and less than 70%)

# Test system: redroot pigweed
# Test: Test Example 4: herbicidal effect by soil treatment (Table 19, symbol N)
# Format: in vivo, redroot pigweed (Amaranthus retroflexus)
# Conditions: amount of applied herbicide 320 g/ha
# In short: (§3)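 Herbicidal effect was rated 3 weeks after treatment, using the scoring criteria of an earlier test. The compound, formulated as an emulsion and diluted in water to a set herbicide amount, had been sprayed uniformly on soil over freshly sown seeds. Growth took place in a greenhouse at 25° C. to 30° C.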
row,Structure (SMILES),herbicidal effect on N: redroot pigweed
1,Cc1nn(C)c(=O)c(-c2c(-c3ccc(S(C)(=O)=O)cc3)sc3ccc(F)cc23)c1O [2-258],4 (Herbicidal rate of 70% or more and less than 90%)
2,Cc1nn(C)c(=O)c(-c2c(-c3ccc(OC(F)F)cc3)sc3ccc(F)cc23)c1OC(=O)c1ccc(Cl)cc1 [2-286],4 (Herbicidal rate of 70% or more and less than 90%)

# Test system: late watergrass
# Test: Test Example 1: herbicidal activity, application before weed generation under submerged conditions (Table 16, symbol A)
# Format: in vivo, late watergrass (Echinochloa oryzicola)
# Conditions: 320 g/ha applied herbicide
# In short: (§4)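 Submerged Wagner pots (alluvial soil, 4 cm water) sown with weed seeds and planted with 2.5-leaf rice seedlings; emulsifiable concentrate diluted in water applied to water surface on sowing day. Held in greenhouse at 25-30 °C; injury scored 0-5 by herbicidal rate after three weeks.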
row,Structure (SMILES),Herbicidal effect on A: late watergrass (grade 0-5)
1,Cc1nn(C)c(=O)c(-c2c(-c3ccc(S(C)(=O)=O)cc3)sc3ccc(F)cc23)c1O [2-258],5 (Herbicidal rate of 90% or more (almost completely withered))
2,Cc1nn(C)c(=O)c(-c2c(-c3ccc(OC(F)F)cc3)sc3ccc(F)cc23)c1OC(=O)c1ccc(Cl)cc1 [2-286],5 (Herbicidal rate of 90% or more (almost completely withered))

# Test system: rice flat sedge
# Test: Test Example 3: herbicidal effect by foliage application, Wagner pot (Table 18, symbol E)
# Format: in vivo, rice flat sedge (Cyperus iria)
# Conditions: amount of applied herbicide 320 g/ha
# In short: (§5)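 Plants were sown in alluvial soil held under 0.1–0.5 cm standing water and grown 14 days in a greenhouse at 25–30 °C. An emulsifiable formulation, water-diluted to the set dose, was then sprayed onto the foliage, and effects were scored three weeks later using previously defined criteria.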
row,Structure (SMILES),herbicidal effect on E: rice flat sedge
1,Cc1nn(C)c(=O)c(-c2c(-c3ccc(S(C)(=O)=O)cc3)sc3ccc(F)cc23)c1O [2-258],5 (Herbicidal rate of 90% or more (almost completely withered))
2,Cc1nn(C)c(=O)c(-c2c(-c3ccc(OC(F)F)cc3)sc3ccc(F)cc23)c1OC(=O)c1ccc(Cl)cc1 [2-286],4 (Herbicidal rate of 70% or more and less than 90%)

# Test system: Chinese sprangletop
# Test: Test Example 3: herbicidal effect by foliage application, Wagner pot (Table 18, symbol D)
# Format: in vivo, chinese sprangletop (Leptochloa chinensis)
# Conditions: amount of applied herbicide 320 g/ha
# In short: as §5
row,Structure (SMILES),herbicidal effect on D: Chinese sprangletop
1,Cc1nn(C)c(=O)c(-c2c(-c3ccc(S(C)(=O)=O)cc3)sc3ccc(F)cc23)c1O [2-258],5 (Herbicidal rate of 90% or more (almost completely withered))
2,Cc1nn(C)c(=O)c(-c2c(-c3ccc(OC(F)F)cc3)sc3ccc(F)cc23)c1OC(=O)c1ccc(Cl)cc1 [2-286],4 (Herbicidal rate of 70% or more and less than 90%)

# Test system: green foxtail
# Test: Test Example 5: herbicidal effect by foliage application, plastic box (Table 20, symbol G)
# Format: in vivo, green foxtail (Setaria viridis)
# Conditions: foliage application, AAH 320 g/ha, evaluated three weeks after application
# In short: as §1
row,Structure (SMILES),"G: green foxtail, herbicidal effect (criteria 0-5)"
1,Cc1nn(C)c(=O)c(-c2c(-c3ccc(S(C)(=O)=O)cc3)sc3ccc(F)cc23)c1O [2-258],5 (Herbicidal rate of 90% or more (almost completely withered))
2,Cc1nn(C)c(=O)c(-c2c(-c3ccc(OC(F)F)cc3)sc3ccc(F)cc23)c1OC(=O)c1ccc(Cl)cc1 [2-286],5 (Herbicidal rate of 90% or more (almost completely withered))

# Test system: oval-leafed pondweed
# Test: Test Example 2: herbicidal activity, application during weed generation under submerged conditions (Table 17, symbol C)
# Format: in vivo, oval-leafed pondweed (Monochoria vaginalis)
# Conditions: AAH 320 g/ha; application during weed generation, submerged conditions
# In short: as §2
row,Structure (SMILES),"herbicidal effect rating, C: oval-leafed pondweed"
1,Cc1nn(C)c(=O)c(-c2c(-c3ccc(S(C)(=O)=O)cc3)sc3ccc(F)cc23)c1O [2-258],3 (Herbicidal rate of 40% or more and less than 70%)
2,Cc1nn(C)c(=O)c(-c2c(-c3ccc(OC(F)F)cc3)sc3ccc(F)cc23)c1OC(=O)c1ccc(Cl)cc1 [2-286],3 (Herbicidal rate of 40% or more and less than 70%)

# Test system: blackgrass
# Test: Test Example 5: herbicidal effect by foliage application, plastic box (Table 20, symbol J)
# Format: in vivo, blackgrass (Alopecurus myosuroides)
# Conditions: foliage application, AAH 320 g/ha, evaluated three weeks after application
# In short: as §1
row,Structure (SMILES),"J: blackgrass, herbicidal effect (criteria 0-5)"
1,Cc1nn(C)c(=O)c(-c2c(-c3ccc(S(C)(=O)=O)cc3)sc3ccc(F)cc23)c1O [2-258],5 (Herbicidal rate of 90% or more (almost completely withered))
2,Cc1nn(C)c(=O)c(-c2c(-c3ccc(OC(F)F)cc3)sc3ccc(F)cc23)c1OC(=O)c1ccc(Cl)cc1 [2-286],4 (Herbicidal rate of 70% or more and less than 90%)

# Test system: Japanese bulrush
# Test: Test Example 1: herbicidal activity, application before weed generation under submerged conditions (Table 16, symbol B)
# Format: in vivo, Japanese bulrush (Schoenoplectus juncoides)
# Conditions: 320 g/ha applied herbicide
# In short: as §4
row,Structure (SMILES),Herbicidal effect on B: Japanese bulrush (grade 0-5)
1,Cc1nn(C)c(=O)c(-c2c(-c3ccc(S(C)(=O)=O)cc3)sc3ccc(F)cc23)c1O [2-258],3 (Herbicidal rate of 40% or more and less than 70%)
2,Cc1nn(C)c(=O)c(-c2c(-c3ccc(OC(F)F)cc3)sc3ccc(F)cc23)c1OC(=O)c1ccc(Cl)cc1 [2-286],3 (Herbicidal rate of 40% or more and less than 70%)

# Test system: Italian ryegrass
# Test: Test Example 4: herbicidal effect by soil treatment (Table 19, symbol K)
# Format: in vivo, Italian ryegrass (Lolium multiflorum)
# Conditions: amount of applied herbicide 320 g/ha
# In short: as §3
row,Structure (SMILES),herbicidal effect on K: Italian ryegrass
1,Cc1nn(C)c(=O)c(-c2c(-c3ccc(S(C)(=O)=O)cc3)sc3ccc(F)cc23)c1O [2-258],5 (Herbicidal rate of 90% or more (almost completely withered))
2,Cc1nn(C)c(=O)c(-c2c(-c3ccc(OC(F)F)cc3)sc3ccc(F)cc23)c1OC(=O)c1ccc(Cl)cc1 [2-286],5 (Herbicidal rate of 90% or more (almost completely withered))

# Test system: barnyard grass
# Test: Test Example 3: herbicidal effect by foliage application, Wagner pot (Table 18, symbol H)
# Format: in vivo, barnyard grass (Echinochloa crus-galli)
# Conditions: amount of applied herbicide 320 g/ha
# In short: as §5
row,Structure (SMILES),herbicidal effect on H: barnyard grass
1,Cc1nn(C)c(=O)c(-c2c(-c3ccc(S(C)(=O)=O)cc3)sc3ccc(F)cc23)c1O [2-258],5 (Herbicidal rate of 90% or more (almost completely withered))
2,Cc1nn(C)c(=O)c(-c2c(-c3ccc(OC(F)F)cc3)sc3ccc(F)cc23)c1OC(=O)c1ccc(Cl)cc1 [2-286],5 (Herbicidal rate of 90% or more (almost completely withered))

# Test system: windgrass
# Test: Test Example 4: herbicidal effect by soil treatment (Table 19, symbol L)
# Format: in vivo, windgrass (Apera spica-venti)
# Conditions: amount of applied herbicide 320 g/ha
# In short: as §3
row,Structure (SMILES),herbicidal effect on L: windgrass
1,Cc1nn(C)c(=O)c(-c2c(-c3ccc(S(C)(=O)=O)cc3)sc3ccc(F)cc23)c1O [2-258],4 (Herbicidal rate of 70% or more and less than 90%)
2,Cc1nn(C)c(=O)c(-c2c(-c3ccc(OC(F)F)cc3)sc3ccc(F)cc23)c1OC(=O)c1ccc(Cl)cc1 [2-286],0 (Herbicidal rate of 5% or less (almost no effect))

# Test system: southern crabgrass
# Test: Test Example 5: herbicidal effect by foliage application, plastic box (Table 20, symbol F)
# Format: in vivo, southern crabgrass (Digitaria ciliaris)
# Conditions: foliage application, AAH 320 g/ha, evaluated three weeks after application
# In short: as §1
row,Structure (SMILES),"F: southern crabgrass, herbicidal effect (criteria 0-5)"
1,Cc1nn(C)c(=O)c(-c2c(-c3ccc(S(C)(=O)=O)cc3)sc3ccc(F)cc23)c1O [2-258],5 (Herbicidal rate of 90% or more (almost completely withered))
2,Cc1nn(C)c(=O)c(-c2c(-c3ccc(OC(F)F)cc3)sc3ccc(F)cc23)c1OC(=O)c1ccc(Cl)cc1 [2-286],2 (Herbicidal rate of 20% or more and less than 40%)

# Test system: barnyard grass
# Test: Test Example 5: herbicidal effect by foliage application, plastic box (Table 20, symbol H)
# Format: in vivo, barnyard grass (Echinochloa crus-galli)
# Conditions: foliage application, AAH 320 g/ha, evaluated three weeks after application
# In short: as §1
row,Structure (SMILES),"H: barnyard grass, herbicidal effect (criteria 0-5)"
1,Cc1nn(C)c(=O)c(-c2c(-c3ccc(S(C)(=O)=O)cc3)sc3ccc(F)cc23)c1O [2-258],5 (Herbicidal rate of 90% or more (almost completely withered))
2,Cc1nn(C)c(=O)c(-c2c(-c3ccc(OC(F)F)cc3)sc3ccc(F)cc23)c1OC(=O)c1ccc(Cl)cc1 [2-286],5 (Herbicidal rate of 90% or more (almost completely withered))
